# Data reported in the supplement of paper PMC10307832.
# Experiments:
# Assay in all cases: relative viability (nuclei count vs DMSO), 5 days (fraction); higher = more cells survive
# NCI-H520 = tested on: NCI-H520
# Outline: (§1)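 Lung cancer cell lines in 1536-well plates got either a single drug or a fixed anchor-drug dose together with five library-drug doses (not always all listed) in √10 steps, by pin tool, on the day after seeding. Nuclei were counted after 5 days, and relative viability is the treated-to-vehicle ratio of nuclei counts. Values are medians of duplicate plates.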
# NCI-H1944 = tested on: NCI-H1944
# Outline: as §1
# NCI-H1651 = tested on: NCI-H1651
# Outline: as §1
# NCI-H2087 = tested on: NCI-H2087
# Outline: as §1
# HCC-15 = tested on: HCC-15
# Outline: as §1
# NCI-H1975 = tested on: NCI-H1975
# Outline: as §1
# HCC-827 = tested on: HCC-827
# Outline: as §1
# NCI-H727 = tested on: NCI-H727
# Outline: as §1
# NCI-H661 = tested on: NCI-H661
# Outline: as §1
# NCI-H647 = tested on: NCI-H647
# Outline: as §1
# NCI-H1792 = tested on: NCI-H1792
# Outline: as §1
# COR-L 105 = tested on: COR-L 105
# Outline: as §1
# NCI-H522 = tested on: NCI-H522
# Outline: as §1
# NCI-H650 = tested on: NCI-H650
# Outline: as §1
# COR-L23 = tested on: COR-L23
# Outline: as §1
# NCI-H1755 = tested on: NCI-H1755
# Outline: as §1
# NCI-H358 = tested on: NCI-H358
# Outline: as §1
# H3255 = tested on: H3255
# Outline: as §1
# EPLC-272H = tested on: EPLC-272H
# Outline: as §1
# NCI-H1437 = tested on: NCI-H1437
# Outline: as §1
# NCI-H1650 = tested on: NCI-H1650
# Outline: as §1
# LCLC-103H = tested on: LCLC-103H
# Outline: as §1
smiles,measurement,setting,value
COCC1(CO)C(=O)C2CCN1CC2 (stereo unspecified) [PRIMA-1MET] + CCNC(=O)c1noc(-c2cc(C(C)C)c(O)cc2O)c1-c1ccc(CN2CCOCC2)cc1 [Luminespib] (partner 0.01 µM),relative viability,NCI-H520; first compound 0.2 µM,0.214
same,relative viability,NCI-H520; first compound 0.6325 µM,0.215
same,relative viability,NCI-H520; first compound 2 µM,0.186
same,relative viability,NCI-H520; first compound 6.325 µM,0.2
same,relative viability,NCI-H520; first compound 20 µM,0.203
same,relative viability,NCI-H1944; first compound 0.2 µM,0.671
same,relative viability,NCI-H1944; first compound 0.6325 µM,0.612
same,relative viability,NCI-H1944; first compound 2 µM,0.61
same,relative viability,NCI-H1944; first compound 6.325 µM,0.685
same,relative viability,NCI-H1944; first compound 20 µM,0.724
same,relative viability,NCI-H1651; first compound 0.2 µM,0.99
same,relative viability,NCI-H1651; first compound 0.6325 µM,0.704
same,relative viability,NCI-H1651; first compound 2 µM,0.66
same,relative viability,NCI-H1651; first compound 6.325 µM,1.06
same,relative viability,NCI-H1651; first compound 20 µM,0.824
same,relative viability,NCI-H2087; first compound 0.2 µM,0.167
same,relative viability,NCI-H2087; first compound 0.6325 µM,0.17
same,relative viability,NCI-H2087; first compound 2 µM,0.153
same,relative viability,NCI-H2087; first compound 6.325 µM,0.181
same,relative viability,NCI-H2087; first compound 20 µM,0.0951
same,relative viability,HCC-15; first compound 0.2 µM,0.264
same,relative viability,HCC-15; first compound 0.6325 µM,0.232
same,relative viability,HCC-15; first compound 2 µM,0.393
same,relative viability,HCC-15; first compound 6.325 µM,0.408
same,relative viability,HCC-15; first compound 20 µM,0.197
same,relative viability,NCI-H1975; first compound 0.2 µM,0.33
same,relative viability,NCI-H1975; first compound 0.6325 µM,0.171
same,relative viability,NCI-H1975; first compound 2 µM,0.21
same,relative viability,NCI-H1975; first compound 6.325 µM,0.252
same,relative viability,NCI-H1975; first compound 20 µM,0.154
same,relative viability,HCC-827; first compound 0.2 µM,0.761
same,relative viability,HCC-827; first compound 0.6325 µM,0.624
same,relative viability,HCC-827; first compound 2 µM,0.303
same,relative viability,HCC-827; first compound 6.325 µM,0.477
same,relative viability,HCC-827; first compound 20 µM,0.447
same,relative viability,NCI-H727; first compound 0.2 µM,0.615
same,relative viability,NCI-H727; first compound 0.6325 µM,0.328
same,relative viability,NCI-H727; first compound 2 µM,0.236
same,relative viability,NCI-H727; first compound 6.325 µM,0.426
same,relative viability,NCI-H727; first compound 20 µM,0.213
same,relative viability,NCI-H661; first compound 0.2 µM,1.02
same,relative viability,NCI-H661; first compound 0.6325 µM,0.886
same,relative viability,NCI-H661; first compound 2 µM,0.965
same,relative viability,NCI-H661; first compound 6.325 µM,0.929
same,relative viability,NCI-H661; first compound 20 µM,0.886
same,relative viability,NCI-H647; first compound 0.2 µM,0.181
same,relative viability,NCI-H647; first compound 0.6325 µM,0.224
same,relative viability,NCI-H647; first compound 6.325 µM,0.219
same,relative viability,NCI-H647; first compound 20 µM,0.0932
same,relative viability,NCI-H1792; first compound 0.2 µM,0.533
same,relative viability,NCI-H1792; first compound 0.6325 µM,0.491
same,relative viability,NCI-H1792; first compound 2 µM,0.394
same,relative viability,NCI-H1792; first compound 6.325 µM,0.466
same,relative viability,NCI-H1792; first compound 20 µM,0.45
same,relative viability,COR-L 105; first compound 0.2 µM,0.775
same,relative viability,COR-L 105; first compound 0.6325 µM,0.687
same,relative viability,COR-L 105; first compound 2 µM,0.845
same,relative viability,COR-L 105; first compound 6.325 µM,0.808
same,relative viability,COR-L 105; first compound 20 µM,0.111
same,relative viability,NCI-H522; first compound 0.2 µM,1.09
same,relative viability,NCI-H522; first compound 0.6325 µM,0.899
same,relative viability,NCI-H522; first compound 2 µM,1.1
same,relative viability,NCI-H522; first compound 6.325 µM,0.989
same,relative viability,NCI-H522; first compound 20 µM,0.838
same,relative viability,NCI-H650; first compound 0.2 µM,1.19
same,relative viability,NCI-H650; first compound 2 µM,0.666
same,relative viability,NCI-H650; first compound 6.325 µM,0.746
same,relative viability,NCI-H650; first compound 20 µM,0.373
same,relative viability,COR-L23; first compound 0.2 µM,0.691
same,relative viability,COR-L23; first compound 0.6325 µM,0.528
same,relative viability,COR-L23; first compound 2 µM,0.711
same,relative viability,COR-L23; first compound 6.325 µM,0.578
same,relative viability,COR-L23; first compound 20 µM,0.0159
same,relative viability,NCI-H1755; first compound 0.2 µM,0.527
same,relative viability,NCI-H1755; first compound 0.6325 µM,0.332
same,relative viability,NCI-H1755; first compound 2 µM,0.404
same,relative viability,NCI-H1755; first compound 6.325 µM,0.51
same,relative viability,NCI-H1755; first compound 20 µM,0.454
same,relative viability,NCI-H358; first compound 0.2 µM,0.314
same,relative viability,NCI-H358; first compound 0.6325 µM,0.312
same,relative viability,NCI-H358; first compound 2 µM,0.354
same,relative viability,NCI-H358; first compound 6.325 µM,0.416
same,relative viability,NCI-H358; first compound 20 µM,0.287
same,relative viability,H3255; first compound 0.2 µM,0.933
same,relative viability,H3255; first compound 0.6325 µM,0.813
same,relative viability,H3255; first compound 2 µM,0.741
same,relative viability,H3255; first compound 6.325 µM,0.868
same,relative viability,H3255; first compound 20 µM,0.91
same,relative viability,EPLC-272H; first compound 2 µM,0.277
same,relative viability,EPLC-272H; first compound 6.325 µM,0.237
same,relative viability,EPLC-272H; first compound 20 µM,0.146
same,relative viability,NCI-H1437; first compound 0.2 µM,1.18
same,relative viability,NCI-H1437; first compound 0.6325 µM,1.08
same,relative viability,NCI-H1437; first compound 2 µM,1.09
same,relative viability,NCI-H1437; first compound 6.325 µM,1.16
same,relative viability,NCI-H1437; first compound 20 µM,1.01
same,relative viability,NCI-H1650; first compound 0.2 µM,0.228
same,relative viability,NCI-H1650; first compound 0.6325 µM,0.212
same,relative viability,NCI-H1650; first compound 2 µM,0.185
same,relative viability,NCI-H1650; first compound 6.325 µM,0.193
same,relative viability,NCI-H1650; first compound 20 µM,0.123
same,relative viability,LCLC-103H; first compound 0.2 µM,1.05
same,relative viability,LCLC-103H; first compound 0.6325 µM,0.831
same,relative viability,LCLC-103H; first compound 2 µM,0.892
same,relative viability,LCLC-103H; first compound 6.325 µM,0.985
same,relative viability,LCLC-103H; first compound 20 µM,0.307
